Key:
HT-29 colon cancer cells = test: MTT proliferation inhibition (cell viability) on colon cancer cell line HT-29; format: cell-based; details: for IC50: Homo sapiens, HT-29 colon cancer cell line, 24 hours with drug, MTT method, OD 570 nm, read-out: IC50 ± SD, HT-29
Experimental: (§1) Colon cancer cell lines HT-29 and SW620 (cell bank of Chinese Academy of Sciences) were cultured in a DMEM culture solution containing 10% fetal bovine serum (Gibco Company of America) at 37° C. under 5% CO2. During subculturing, a dish of tumor cells was taken out first, the culture solution was removed, and 3 mL of PBS was added to wash the cells twice; 1 mL of trypsin was added for digestion, 1 mL of culture solution was added after 2 minutes to stop the digestion, and the mixture was centrifuged at 1000 r/min and room temperature for 5 minutes; and a supernatant was removed, 1 mL of DMEM culture medium containing 10% fetal bovine serum was added, and the mixture was resuspended to obtain a cell suspension.
(§2) Different volumes of DMEM culture media were added to dilute the compounds into different concentrations. Meanwhile, a DMEM culture medium containing 0.1% DMSO was used as a negative control.
(§3) Tumor cells were suspended in a culture medium, inoculated into a 96-well plate (100 μL/well) by a cell density of 6×10^3, and cultured at 37° C. under 5% CO2 for 24 hours. In a logarithmic growth period of the tumor cell lines, different concentrations of compounds were added to culture the cells at 37° C. under 5% CO2 for 24 hours.
(§4) After 24 hours of interaction between the drugs and the tumor cells, 20 μL of MTT solution (5 mg/mL) was added into each well to incubate the cells in a sterile incubator for 3 hours. A supernatant was removed completely, and 150 μL of DMSO was added into each well to react on a shaker for 30 minutes, so as to dissolve bluish violet formazan crystals. An OD value was determined at a wavelength of 570 nm with a microplate reader. IC50 (median inhibitory concentration) values of the compounds were calculated by GraphPad Prism 8 software, and 5-FU was used as a positive control.

[1] = system: colon cancer cell line SW620; test: MTT proliferation inhibition (cell viability) on colon cancer cell line SW620; format: cell-based; details: for IC50: Homo sapiens, SW-620, SW620 colon cancer cell line, 24 hours with drug, MTT method, OD 570 nm, read-out: IC50 ± SD, SW620
Experimental: as §1, §2, §3, §4

C[C@@H](C(=O)O)[C@@H]1[C@H]2C[C@H]3c4occc4C(=O)C[C@H]3[C@]1(CCC(=O)O)CO2 [Compound 1, secoicacinlivitholide F]
IC50 (HT-29 colon cancer cells): > 20 µM

COC(=O)CC[C@]12CO[C@H](C[C@H]3c4occc4C(=O)C[C@H]31)[C@H]2[C@@H](C)C(=O)O [Compound 2, secoicacinlivitholide G]
inhibiting effect on HT-29 relative to positive drug 5-FU (HT-29 colon cancer cells; HT-29, compared with 5-FU): about three times that of the positive drug 5-FU
anti-proliferation effect on HT-29 (in words) (HT-29 colon cancer cells; HT-29, stated stronger than positive drug 5-FU): remarkable anti-proliferation effects
IC50 (HT-29 colon cancer cells): 3.12 ± 1.63 µM
IC50 [1]: 9.92 ± 1.68 µM
anti-proliferation effect on SW620 (in words) ([1]; SW620, stated stronger than positive drug 5-FU): remarkable anti-proliferation effects

O=c1[nH]cc(F)c(=O)[nH]1 [Compound 5-FU, 5-fluorouracil, reference compound]
IC50 (HT-29 colon cancer cells): 9.18 ± 1.61 µM
IC50 [1]: 14.2 ± 1.43 µM

Source: patent US12502372B2, “(9beta-H)-pimarane mother nucleus diterpenoid compound with anti-colon cancer activity and derivative thereof, and preparation method thereof” (NANJING UNIVERSITY OF CHINESE MEDICINE, priority 2023, dated 2025)
